Source: patent publication US6239297A, “Sphingosine derivatives and medicinal composition” (Takara Shuzo Co., Ltd., priority 1997, dated 2001)
In brackets after ≈: the same amount, converted by molar mass.

Columns and labels:
[1] = system: Cryptococcus neoformans TIMM 0354; assay: Antifungal activity: growth inhibition of Cryptococcus neoformans TIMM 0354 (serial two-fold dilution); format: cell-based; details: YNBG liquid medium, 2 days at 30° C.; for MIC: Cryptococcus neoformans, TIMM0354, 48 h, read-out: Antifungal activity MIC (minimum growth inhibitory concentration); for minimum growth sub-inhibitory concentration (minimum concentration causing partial growth inhibition; value in parentheses): printed in parentheses
Protocol: The test microorganism used was Cryptococcus neoformans TIMM 0354. YNBG liquid medium (Difco yeast nitrogen base 0.67%, glucose 1%) was used and the minimum growth inhibitory concentration […] was determined after culturing for 2 days at 30° C. in the presence of the serial two-fold dilution of the compound. The minimum growth sub-inhibitory concentration (μg/ml) was determined as the minimum concentration causing partial growth inhibition of the microorganism and also shown in Table 2 in parentheses.

[2] = system: mixed lymphocytes reaction (MLR), T cells from spleen cells of C57BL/6 mice and BALB/c mice; assay: Immunosuppressive activity: inhibition of mixed lymphocytes reaction (MLR); format: cell-based, mice (C57BL/6; details: Lymphocyte; mouse MLR, 50% inhibition
From the text: We measured inhibitory activity of mixed lymphocytes reaction (MLR) and determined the 50% inhibitory activity. Lymphocytes used are T cells from spleen cells of C57BL/6 mice and BALB/c mice.

Compound	MIC [1] [µg/mL]	IC50 [2] [µg/mL]	minimum growth sub-inhibitory concentration (minimum concentration causing partial growth inhibition; value in parentheses) [1] [µg/mL]
CCCCCCCCCCCCCCCC(O)C(N)COC(=O)[C@@H](NC(=O)C(O)CO)C(C)C (some centres unmarked) [Compound (1)]	50 (≈ 102 µM)	3.25 (≈ 6.65 µM)	25
CCCCCCCCCCCCCC=CC(O)C(N)COC(=O)C(NC(=O)C(O)CO)C(C)C (centres unmarked) [Compound (2)]	25 (≈ 51.4 µM)	1.86 (≈ 3.82 µM)	12.5
CCCCCCCCCCCCCC=CC(O)C(N)COC(=O)C(O)CO (centres unmarked) [Compound (5)]	50 (≈ 129 µM)	5 (≈ 12.9 µM)	25

The next lines start with results.

MIC [1] [µg/mL]	IC50 [2] [µg/mL]	Compound	minimum growth sub-inhibitory concentration (minimum concentration causing partial growth inhibition; value in parentheses) [1] [µg/mL]
50 (≈ 125 µM)	1.55 (≈ 3.89 µM)	CCCCCCCCCCCCCC=CC(O)C(N)COC(=O)C(N)C(C)C (centres unmarked) [Compound (6)]	25
	0.44 (≈ 0.787 µM)	CCCCCCCCCCCCCCCC(O)C(N)C(=O)NC(C)C(=O)NC(C(=O)NC(CO)CO)C(C)C (centres unmarked) [Compound (8)]	50
